Results on 26 molecules are retold here after PMC10451629, “Evaluation of the Effects of Heteroaryl Ethylene Molecules in Combination with Antibiotics: A Preliminary Study on Control Strains” (Antibiotics, 2023).

SMILES strings stand for the structures. ≈ marks a conversion by molar mass, not a printed value. Where “and” joins values, the source holds several entries; their conditions need not be identical. Equal entries are not always repeated. Where two headings read alike, the source gives them in different places.

The subject of test [1] is CaCo-2 (ATCC HTB-37) colon–rectal cancer cell line. Kind of test: MTT cytotoxicity assay on CaCo-2 cells. Format: cell-based, human. The following applies: for IC50: Homo sapiens, CaCo-2 cell line, MTT; for Percentage of cell growth, antibiotic / Percentage of cell growth, antibiotic + PB4 0.2 µM: CaCo-2. Here is the method: To fully assess the biological activity of the new molecules, they were tested at different concentrations on the CaCo-2 (ATCC HTB-37) colon–rectal cancer cell line. These human cancer cells were exposed to compound solutions ranging in concentration from 100 µM to 0.01 µM. As a reference compound for these assays, we used 5-Fluorouracil (5-FU), a pyrimidine analog from the antimetabolite family.
The MTT assay was also performed for the selected antibiotics to evaluate the effect of their combined treatment with PB4.
To evaluate the effect of the heteroaryl ethylene compounds and the antibiotics, an MTT ([3-(4,5-dimethylthiazol-2-yl)-2,5-diphenyltetrazolium bromide]) assay was performed as previously described. […] Both concentrations were also tested in combination with PB4 0.2 µM. All antibiotics were provided by Thermo Scientific^TM Oxoid^TM, Basingstoke, UK. Twenty-four hours after plating, the cells were treated with 20 μL of each solution. Untreated cells were used as controls. […] The IC50 values were calculated by nonlinear regression analysis using GraphPad Prism 6.0 software.
(In general: Tetrazolium dyes change colour on reduction, which living cells bring about.)

Test [2] has as its system CaCo2 colon-rectal cancer cell line. Also on record: method as in in-house dataset; Log(IC50) 48h: unit not given here. The following applies: in-house dataset previously tested by the authors' groups, ref in-house dataset, cited from earlier work; for IC50: 48h.
In a further test the test system is S. aureus ATCC29213. Particulars: QSAR dataset, cited from earlier work.
The next test deals with S. enterica ATCC 14028. Kind of test: Broth microdilution MIC. Format: cell-based. Particulars: Salmonella enterica, ATCC14028, substance alone. (Broth dilution looks for growth in wells or tubes with falling amounts of substance.)
A further test relates to S. aureus ATCC 12598. As to the kind of experiment: Broth microdilution MIC. The following applies: Staphylococcus aureus. Format: cell-based, Staphylococcus aureus.
Another test deals with S. aureus ATCC 29213. As to the kind of experiment: Broth microdilution MIC. The class given is cell-based. The following applies: Staphylococcus aureus.
For test [3], the system named is K. pneumoniae ATCC 700603. Kind of test: Broth microdilution MIC. Particulars: Klebsiella pneumoniae, ATCC700603, K. pneumoniae ATCC 700603; substance alone; read-out: MIC. Format: cell-based, Klebsiella pneumoniae.
The subject of test [4] is S. aureus ATCC BAA-1556 USA300. As to the kind of experiment: Broth microdilution MIC. The class given is cell-based, Staphylococcus aureus. The following applies: for MIC: Staphylococcus aureus, S. aureus ATCC BAA-1556 USA300, substance alone.
The test system of a further test is E. faecalis ATCC 29212. Kind of test: Broth microdilution MIC. Format: cell-based, Enterococcus faecalis. Particulars: for MIC: Enterococcus faecalis.
In another test the test system is A. baumannii ATCC 17978. Kind of test: Broth microdilution MIC. The class given is cell-based. The following applies: Acinetobacter baumannii, ATCC17978, substance alone.
A further test relates to P. aeruginosa ATCC 27853. As to the kind of experiment: Broth microdilution MIC. Particulars: Pseudomonas aeruginosa, ATCC27853, P. aeruginosa ATCC 27853; substance alone; read-out: MIC. The class given is cell-based, Pseudomonas aeruginosa.
The test system of another test is E. coli ATCC 25922. Kind of test: Broth microdilution MIC. The class given is cell-based. Particulars: Escherichia coli, ATCC25922, substance alone, read-out: MIC.
[5] abbreviates: Caco-2, 24 h, 24 h of treatment, read-out: IC50 at 24 h.
[6] abbreviates: Caco-2, 48 h, 48 h of treatment, read-out: IC50 at 48 h.
[7] abbreviates: in-house database, previously tested, ref Unpublished results.
Where [8] appears, read: ATCC12598, S. aureus ATCC 12598, substance alone, read-out: MIC.
Setting [9] is: ATCC29213, S. aureus ATCC 29213, substance alone, read-out: MIC.
Setting [10] is: ATCC29212, E. faecalis ATCC 29212, substance alone, read-out: MIC.

With `O=c1[nH]cc(F)c(=O)[nH]1` [5-FU, 5-Fluorouracil], the IC50 in [1] (setting [5]) is roughly 27 µM; in [1] (setting [6]) it was 12.9 µM.
Take `C[n+]1c(/C=C/c2ccc(-c3ccc(N4CCCCC4)s3)s2)ccc2ccccc21` [BC1]: in [2], the IC50 is 20 µM and the “Log(IC50) 48h” value is recorded as 1.30.
For `CCCCN(CCCC)c1ccc(-c2ccc(/C=C/c3ccc(C(=O)O)c[n+]3C)s2)s1` [BCG3], in test [2], the 50% inhibitory concentration (IC50) is 8 µM and the “Log(IC50) 48h” value is listed as 0.90.
As to `CC[n+]1ccc2c(c1)CCC/C2=C\c1ccc(N(C)C)cc1` [BCM3], in test [2], the IC50 was 1.35 µM and the “Log(IC50) 48h” value was 0.13. Further, the MIC in the test with S. aureus ATCC29213 (setting [7]) is 64 µg/mL.
`CN(C)c1ccc(/C=C/c2cccc[n+]2C)cc1` [BCM4]: the MIC is > 128 µg/mL and ≥ 350 µM against S. enterica ATCC 14028; 64 µg/mL and 175 µM in the test with S. aureus ATCC 12598 (setting [8]); 128 µg/mL and 350 µM with S. aureus ATCC 29213 (setting [9]); > 128 µg/mL and ≥ 350 µM in test [3]; 64 µg/mL and 175 µM in test [4]; ≥ 128 µg/mL and ≥ 350 µM with E. faecalis ATCC 29212 (setting [10]). Besides, the MIC against A. baumannii ATCC 17978 was ≥ 128 µg/mL and ≥ 350 µM; in the test on P. aeruginosa ATCC 27853, > 128 µg/mL and ≥ 350 µM; in the test on E. coli ATCC 25922, ≥ 128 µg/mL and ≥ 350 µM. In addition, the 50% inhibitory concentration (IC50) in test [1] (setting [5]) was determined as 0.72 µM; in test [1] (setting [6]), 0.1 µM.
Take `C[n+]1c(/C=C/c2cc(Cl)ccc2O)cccc1/C=C/c1cc(Cl)ccc1O` [BCM12]: in the test with S. aureus ATCC29213 (setting [7]), the MIC is greater than 128 µg/mL.
`CC[n+]1ccc2c(c1)CCC/C2=C\c1ccccc1O` [BCNAc1]: the MIC in the test on S. aureus ATCC29213 (setting [7]) is listed as greater than 128 µg/mL.
Regarding `C[n+]1ccccc1/C=C/c1ccc2ccc3c4c2c1C=CC4C=CC3` (centres unmarked) [GC VI 3], in test [2], the IC50 is 0.9 µM and the “Log(IC50) 48h” value was -0.0458.
Turning to `C[n+]1c(/C=C/c2ccc(N(c3ccccc3)c3ccccc3)cc2)ccc2ccccc21` [GC VI 14], in test [2], the IC50 was 4 µM and the “Log(IC50) 48h” value was 0.602.
With `CN(C)c1ccc(/C=C/c2cc[n+](C)cc2)cc1` [GC VI 17], in test [2], the IC50 was 8 µM and the “Log(IC50) 48h” value was 0.903.
Regarding `CN(C)c1ccc(/C=C/C=C/c2cc[n+](C)cc2)cc1` [GC VI 45], in test [2], the IC50 was 16 µM and the “Log(IC50) 48h” value is 1.20.
On to `C[n+]1c(/C=C/c2ccnc(-c3cc(/C=C/c4ccc5ccccc5[n+]4C)ccn3)c2)ccc2ccccc21` [GC VI 71], for which, in test [2], the IC50 was 51.2 µM and the “Log(IC50) 48h” value is 1.71.
Regarding `CCOC(=O)C(C#N)c1ccc(/C=C/c2cc[n+](C)cc2)n1C` (centres unmarked) [GC VII 16], in test [2], the IC50 was 70 µM and the “Log(IC50) 48h” value was 1.85.
`C[n+]1ccccc1/C=C/c1ccc2ccccc2c1` [GC VII 46]: in test [2], the IC50 was 5.5 µM and the “Log(IC50) 48h” value is listed as 0.740.
Consider `C[n+]1ccccc1/C=C/c1ccc(N(c2ccccc2)c2ccccc2)cc1` [GC VII 47], for which, in [2], the IC50 is 1 µM and the “Log(IC50) 48h” value is listed as 0.
`C[n+]1c(/C=C/c2ccc3ccccc3c2)cccc1/C=C/c1ccc2ccccc2c1` [GC-VII-39]: the minimal inhibitory concentration (MIC) was ≥ 128 µg/mL and ≥ 244 µM with S. enterica ATCC 14028; 32 µg/mL and 60.9 µM in the test with S. aureus ATCC 12598 (setting [8]); 128 µg/mL and 244 µM in the test with S. aureus ATCC 29213 (setting [9]); ≥ 128 µg/mL and ≥ 244 µM in [3]; > 128 µg/mL and > 244 µM in [4]; 16 µg/mL and 30.4 µM with E. faecalis ATCC 29212 (setting [10]). Besides, the minimum inhibitory concentration (MIC) against A. baumannii ATCC 17978 is ≥ 128 µg/mL and ≥ 244 µM; with P. aeruginosa ATCC 27853, ≥ 128 µg/mL and ≥ 244 µM; in the test on E. coli ATCC 25922, no less than 128 µg/mL. Also, the IC50 in test [1] (setting [5]) is 0.23 µM; in test [1] (setting [6]) it was 0.18 µM.
`CN(C)c1ccc(/C=C/C=C/c2cccc[n+]2C)cc1` [GF I 25]: in test [2], the IC50 was 10 µM and the “Log(IC50) 48h” value is 1.
As to `Cn1c(/C=C/c2ccncc2)ccc1/C=C/c1cc[n+](C)cc1` [GF I 30], in test [2], the IC50 is 50 µM and the “Log(IC50) 48h” value is 1.70.
Take `Cn1c(/C=C/C2=C(C#N)C(=C(C#N)C#N)OC2(C)C)ccc1/C=C/c1cc[n+](C)cc1` [GF I 32]: in test [2], the IC50 was 32 µM and the “Log(IC50) 48h” value was 1.51.
Consider `CCCCN(CCCC)c1ccc(-c2ccc(/C=C/c3ccc4ccccc4[n+]3C)s2)s1` [PB2], for which the MIC in the test on S. aureus ATCC29213 is listed as 4 µg/mL.
Consider `C[n+]1ccc(/C=C/c2ccc(-c3cc(Cl)ccc3Cl)o2)cc1` [PB6], for which the MIC in the test with S. aureus ATCC29213 was 4 µg/mL.
In the case of `CC[n+]1ccc2c(c1)CCC/C2=C\c1ccc(-c2ccc(Cl)cc2)o1` [PB7], in the test with S. aureus ATCC29213, the MIC is listed as 4 µg/mL.
As to `CCCCN(CCCC)c1ccc(-c2ccc(/C=C3\CCCc4c[n+](CC)ccc43)s2)s1` [PB8], the minimum inhibitory concentration (MIC) with S. aureus ATCC29213 was 2 µg/mL.
In the case of `CO[C@H]1/C=C/O[C@@]2(C)Oc3c(C)c(O)c4c(O)c(c(/C=N/N5CCN(C)CC5)c(O)c4c3C2=O)NC(=O)/C(C)=C\C=C\[C@H](C)[C@H](O)[C@@H](C)[C@@H](O)[C@@H](C)[C@H](OC(C)=O)[C@@H]1C` [Rifampin, rifampin, reference compound], the MIC in the test on S. aureus ATCC 12598 (ATCC12598) is 0.125 µg/mL (≈ 0.152 µM); in the test with S. aureus ATCC 29213 (ATCC29213), 0.125 µg/mL (≈ 0.152 µM); in test [4], 0.125 µg/mL (≈ 0.152 µM); in the test with E. faecalis ATCC 29212 (ATCC29212), 0.125 µg/mL (≈ 0.152 µM); in the test with E. faecalis ATCC 29212 (setting [10]), 0.25 µg/mL (≈ 0.304 µM). Also, the “Reduction of antibiotic MIC by PB4” value in [4] (S. aureus USA 300, antibiotic + PB4 vs antibiotic alone) is 4 -fold log reduction; in the test on E. faecalis ATCC 29212 (E. faecalis ATCC 29212, antibiotic + PB4 vs antibiotic alone) it was 2 -fold log reduction. For the same molecule, in the test on E. faecalis ATCC 29212 (E. faecalis ATCC 29212, PB4 at fixed 0.125 μg/mL (0.24 μM), a quarter of an MIC value), the “MIC of antibiotic in combination with PB4” value is 0.006 µg/mL. The “Percentage of cell growth, antibiotic” value in test [1] (antibiotic alone at MIC for E. faecalis ATCC 29212, 24 h) turned out to be 133.7%; in [1] (antibiotic alone at MIC for E. faecalis ATCC 29212, 48 h), 282.6%; in test [1] (antibiotic alone at sub-MIC (half-MIC), 24 h), 146.6%; in test [1] (antibiotic alone at sub-MIC (half-MIC), 48 h), 265.6%. Besides, the “Percentage of cell growth, antibiotic + PB4 0.2 µM” value is on record as 126.9% in [1] (antibiotic at MIC + PB4 0.2 µM, 24 h); 158.9% in [1] (antibiotic at MIC + PB4 0.2 µM, 48 h); 130.6% in test [1] (antibiotic at sub-MIC + PB4 0.2 µM, 24 h); 163.7% in test [1] (antibiotic at sub-MIC + PB4 0.2 µM, 48 h).
`CCn1cc(/C=C/c2sc3ccccc3[n+]2CC)c2ccccc21` [SBT, reference compound]: the MIC in the test on S. aureus ATCC29213 is 1 µg/mL.
Regarding `CCn1cc(/C=C/c2ccc3ccccc3[n+]2CC)c2ccccc21` [SQL, reference compound], the MIC in the test with S. aureus ATCC29213 was 4 µg/mL.

By IC50 is commonly meant the concentration that gives 50% inhibition. What is called MIC is the least concentration at which growth counts as inhibited.
